Laboratory results: patent US20260167675A1, “VIRAL PEPTIDES AND USES THEREOF” (priority 2022, published 2026)

System: human HLA-A11
Assay: Flow cytometry binding of a pan HLA-A antibody against K562/HLA-A11 cells pulsed with HBV POL606-616 peptides (peptide loading)
Format: cell-based
Conditions: maximum MFI pulsed / maximum MFI un-pulsed cells, loaded if S/N > 1.1; for S/N Peptide Concentration (33 μg/ml): K562/HLA-A11 cells pulsed with 33 μg/ml peptide; for S/N Peptide Concentration (100 μg/ml): K562/HLA-A11 cells pulsed with 100 μg/ml peptide
Description: The present Example was designed to assess loading of HBV POL606-616 peptides on HLA-A11 in K562 cells engineered to express human HLA-A11 (K562/HLA-A11 cells). To assess loading of HBV POL606-616 peptides on HLA-A11, K562 cells engineered to express human HLA-A11 (K562/HLA-A11 cells) were pulsed by resuspending the cells in AIM V medium (Gibco. Catalog #31035-025) at a density of 1×10^6 cells/ml followed by the addition of 10 μg/ml human β2-microglobulin (hB2M; EMID Millipore Catalog #475828) and either 100 μg/ml or 33 μg/ml of the indicated peptide (Table 14).
K562/HLA-A11 cells were then incubated overnight at 37° C. Peptide-pulsed cells were then harvested and plated in staining buffer (PBS, without Calcium and Magnesium (Corning, Reference #21-031-CV)+2% FBS (Seradigm, Lot #238B15)) at a density of 200,000 cells per well in a 96-well V-Bottom plate. Cells were incubated with three-fold serial dilutions (5.1 pM-100 nM) with a pan HLA-A antibody (Novus, Catalog #DDX0250P-100) for 30 minutes at 4° C., washed once in staining buffer, and incubated with an Alexa-647 conjugated secondary antibody (Jackson ImmunoResearch, Catalog #115-606-071) at 5 µg/ml for 30 minutes at 4° C. Cells were again washed once in staining buffer and stained with viability dye (CellTrace™ Violet Cell Proliferation Kit, Thermo-Fisher Cat #C34557) for 30 minutes at 4° C. Lastly, cells were washed once in staining buffer and fixed using a 50% solution of BD Cytofix (BD, Catalog #554655). Samples were run and analyzed on an IntelliCyt iQue flow cytometer to calculate mean fluorescence intensity (MFI) on live cells. MFI values were plotted in GraphPad Prism. The secondary antibody alone condition (i.e., no primary antibody) for each dose-response curve was also included in the analysis as a continuation of the three-fold serial dilution and was represented as the lowest dose. The signal-to-noise (S/N) was calculated by dividing the maximum MFI on the pulsed cells by the maximum MFI on un-pulsed K562/HLA-A11 cells (Table 15). Peptides were determined to load if the S/N from pulsed cells/un-pulsed cells was greater than 1.1.

GSLPQEHIVQK (Hepatitis B virus) [HBV POL606-616 V1]
S/N Peptide Concentration (33 μg/ml): 1.6 | S/N Peptide Concentration (100 μg/ml): 1.4

GTLPQEHIVQK (Hepatitis B virus) [HBV POL606-616 V3]
S/N Peptide Concentration (33 μg/ml): 1.6 | S/N Peptide Concentration (100 μg/ml): 1.5

GTLPQEHIVHK (Hepatitis B virus) [HBV POL606-616 V2]
S/N Peptide Concentration (33 μg/ml): 1.0 | S/N Peptide Concentration (100 μg/ml): 1.1

GSLPQEHIIQK (Hepatitis B virus) [HBV POL606-616 V4]
S/N Peptide Concentration (33 μg/ml): 1.5 | S/N Peptide Concentration (100 μg/ml): 1.5
